Laboratory results published in patent US20230263822A1, “MODULATION OF FACTOR 11 EXPRESSION” (Ionis Pharmaceuticals, Inc., priority 2008, published 2023).

Assay: Hematology assays in cynomolgus monkeys (Example 45)
Format: in vivo
Details: for MCH / MCHC / MCV / RBC count / WBC count / hematocrit / hemoglobin: escalating dose regimen
Outline: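 Cynomolgus monkeys (2 male, 3 female per group) dosed subcutaneously with antisense oligonucleotide or PBS, escalating 5, 10, then 25 mg/kg two to three times weekly over 12 weeks; one chronic group held at 10 mg/kg from week 4. Blood sampled weekly; necropsy on day 85.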

For “ISIS 417002: MOE gapmer, nucleobases 1275 to 1318 of SEQ ID NO: 1 (Table 8) (antisense GGTGCACAGTTTCTGGCAGG; MOE gapmer, wing and gap sizes not given here)”, the MCH (Day 64) was 22 pg, the MCH (Day 71) was 23 pg and the MCH (Day 78) was 23 pg. For the same substance, the MCH (Day 85) was 23 pg, the basophils (day 8) was 0.3% and the eosinophils (day 8) was 0.2%. The lymphocytes (day 8) was 50%, the monocytes (day 8) was 3.3% and the neutrophils (day 8) was 46%. The platelet count (day 8) was 435000 µL⁻¹, the reticulocytes (day 8) was 1.1% and the MCH (day 8) was 23 pg. The MCHC (day 8) was 29 g/dL, the MCV (day 8) was 79 fL and the RBC count (day 8) was 5.6e+06 µL⁻¹. The WBC count (day 8) was 10000 µL⁻¹, the hematocrit (day 8) was 44% and the hemoglobin (day 8) was 12.8 g/dL. The basophils (day 15) was 0.2%, the eosinophils (day 15) was 0.1% and the lymphocytes (day 15) was 40%. It also gave a monocytes (day 15) of 2.3%, a neutrophils (day 15) of 57% and a platelet count (day 15) of 410000 µL⁻¹. For the same substance, the reticulocytes (day 15) was 1.1%, the MCH (day 15) was 23 pg and the MCHC (day 15) was 31 g/dL. For the same substance, the MCV (day 15) was 76 fL, the RBC count (day 15) was 5.4e+06 µL⁻¹ and the WBC count (day 15) was 10000 µL⁻¹. The hematocrit (day 15) was 40%, the hemoglobin (day 15) was 12.3 g/dL and the basophils (day 22) was 0.2%. It also gave an eosinophils (day 22) of 0.3%, a lymphocytes (day 22) of 41% and a monocytes (day 22) of 3.1%. For the same substance, the neutrophils (day 22) was 55%, the platelet count (day 22) was 377000 µL⁻¹ and the reticulocytes (day 22) was 1.2%. The MCH (day 22) was 23 pg, the MCHC (day 22) was 29 g/dL and the MCV (day 22) was 79 fL. For the same substance, the RBC count (day 22) was 5.2e+06 µL⁻¹, the WBC count (day 22) was 10000 µL⁻¹ and the hematocrit (day 22) was 41%. For the same substance, the hemoglobin (day 22) was 12.1 g/dL, the basophils (day 29) was 0.2% and the eosinophils (day 29) was 0.3%. The lymphocytes (day 29) was 50%, the monocytes (day 29) was 3.5% and the neutrophils (day 29) was 45%. It also gave a platelet count (day 29) of 410000 µL⁻¹, a reticulocytes (day 29) of 1.6% and an MCH (day 29) of 23 pg. The MCHC (day 29) was 29 g/dL, the MCV (day 29) was 81 fL and the RBC count (day 29) was 5.2e+06 µL⁻¹. The WBC count (day 29) was 10000 µL⁻¹, the hematocrit (day 29) was 42% and the hemoglobin (day 29) was 12.0 g/dL. The basophils (day 36) was 0.2%, the eosinophils (day 36) was 0.2% and the lymphocytes (day 36) was 35%. For the same substance, the monocytes (day 36) was 2.6%, the neutrophils (day 36) was 61% and the platelet count (day 36) was 415000 µL⁻¹. The reticulocytes (day 36) was 1.3%, the MCH (day 36) was 23 pg and the MCHC (day 36) was 30 g/dL. The MCV (day 36) was 78 fL, the RBC count (day 36) was 5.4e+06 µL⁻¹ and the WBC count (day 36) was 11000 µL⁻¹. It also gave a hematocrit (day 36) of 42%, a hemoglobin (day 36) of 12.5 g/dL and a basophils (day 43) of 0.3%. For the same substance, the eosinophils (day 43) was 0.2%, the lymphocytes (day 43) was 39% and the monocytes (day 43) was 2.8%. It also gave a neutrophils (day 43) of 57%, a platelet count (day 43) of 393000 µL⁻¹ and a reticulocytes (day 43) of 1.1%. It also gave an MCH (day 43) of 23 pg, an MCHC (day 43) of 30 g/dL and an MCV (day 43) of 77 fL. For the same substance, the RBC count (day 43) was 5.4e+06 µL⁻¹, the WBC count (day 43) was 10000 µL⁻¹ and the hematocrit (day 43) was 41%. For the same substance, the hemoglobin (day 43) was 12.3 g/dL, the basophils (day 50) was 0.3% and the eosinophils (day 50) was 0.1%. It also gave a lymphocytes (day 50) of 34%, a monocytes (day 50) of 3.1% and a neutrophils (day 50) of 61%. For the same substance, the platelet count (day 50) was 389000 µL⁻¹, the reticulocytes (day 50) was 1.6% and the MCH (day 50) was 23 pg. It also gave an MCHC (day 50) of 29 g/dL, an MCV (day 50) of 80 fL and an RBC count (day 50) of 5.4e+06 µL⁻¹. For the same substance, the WBC count (day 50) was 13000 µL⁻¹, the hematocrit (day 50) was 43% and the hemoglobin (day 50) was 12.3 g/dL. It also gave a basophils (day 57) of 0.3%, an eosinophils (day 57) of 0.2% and a lymphocytes (day 57) of 40%. The monocytes (day 57) was 3.6%, the neutrophils (day 57) was 54% and the platelet count (day 57) was 403000 µL⁻¹. For the same substance, the reticulocytes (day 57) was 4.6%, the MCH (day 57) was 23 pg and the MCHC (day 57) was 29 g/dL. It also gave an MCV (day 57) of 80 fL, an RBC count (day 57) of 4.9e+06 µL⁻¹ and a WBC count (day 57) of 12000 µL⁻¹. The hematocrit (day 57) was 38%, the hemoglobin (day 57) was 11.3 g/dL and the basophils (day 64) was 0.2%. The eosinophils (day 64) was 0.2%, the lymphocytes (day 64) was 39% and the monocytes (day 64) was 4.0%. It also gave a neutrophils (day 64) of 55%, a platelet count (day 64) of 436000 µL⁻¹ and a reticulocytes (day 64) of 1.3%. The MCHC (day 64) was 30 g/dL, the MCV (day 64) was 76 fL and the RBC count (day 64) was 5.4e+06 µL⁻¹. The WBC count (day 64) was 11000 µL⁻¹, the hematocrit (day 64) was 41% and the hemoglobin (day 64) was 12.2 g/dL. It also gave a basophils (day 71) of 0.3%, an eosinophils (day 71) of 0.3% and a lymphocytes (day 71) of 59%. It also gave a monocytes (day 71) of 4.7%, a neutrophils (day 71) of 34% and a platelet count (day 71) of 490000 µL⁻¹. For the same substance, the reticulocytes (day 71) was 1.3%, the MCHC (day 71) was 29 g/dL and the MCV (day 71) was 78 fL. For the same substance, the RBC count (day 71) was 5.5e+06 µL⁻¹, the WBC count (day 71) was 12000 µL⁻¹ and the hematocrit (day 71) was 43%. For the same substance, the hemoglobin (day 71) was 12.5 g/dL, the basophils (day 78) was 0.3% and the eosinophils (day 78) was 0.1%. The lymphocytes (day 78) was 41%, the monocytes (day 78) was 4.7% and the neutrophils (day 78) was 51%. It also gave a platelet count (day 78) of 432000 µL⁻¹, a reticulocytes (day 78) of 1.3% and an MCHC (day 78) of 31 g/dL. The MCV (day 78) was 75 fL, the RBC count (day 78) was 5.4e+06 µL⁻¹ and the WBC count (day 78) was 9000 µL⁻¹. It also gave a hematocrit (day 78) of 40%, a hemoglobin (day 78) of 12.4 g/dL and a basophils (day 85) of 0.3%. It also gave an eosinophils (day 85) of 0.2%, a lymphocytes (day 85) of 56% and a monocytes (day 85) of 5.3%. For the same substance, the neutrophils (day 85) was 36%, the platelet count (day 85) was 418000 µL⁻¹ and the reticulocytes (day 85) was 1.4%. It also gave an MCHC (day 85) of 30 g/dL, an MCV (day 85) of 76 fL and an RBC count (day 85) of 5.4e+06 µL⁻¹. For the same substance, the WBC count (day 85) was 10000 µL⁻¹, the hematocrit (day 85) was 41% and the hemoglobin (day 85) was 12.2 g/dL. It also gave a basophils (day −5) of 0.3%, an eosinophils (day −5) of 0.3% and a lymphocytes (day −5) of 53%. For the same substance, the monocytes (day −5) was 3.2%, the neutrophils (day −5) was 43% and the platelet count (day −5) was 466000 µL⁻¹. The reticulocytes (day −5) was 0.8%, the MCH (day −5) was 24 pg and the MCHC (day −5) was 30 g/dL. The MCV (day −5) was 80 fL, the RBC count (day −5) was 5.6e+06 µL⁻¹ and the WBC count (day −5) was 14000 µL⁻¹. It also gave a hematocrit (day −5) of 45%, a hemoglobin (day −5) of 13.2 g/dL and a basophils (day −14) of 0.3%. The eosinophils (day −14) was 0.3%, the lymphocytes (day −14) was 53% and the monocytes (day −14) was 3.0%. For the same substance, the neutrophils (day −14) was 43%, the platelet count (day −14) was 442000 µL⁻¹ and the reticulocytes (day −14) was 0.9%. For the same substance, the MCH (day −14) was 24 pg, the MCHC (day −14) was 30 g/dL and the MCV (day −14) was 79 fL. For the same substance, the RBC count (day −14) was 5.6e+06 µL⁻¹, the WBC count (day −14) was 13000 µL⁻¹ and the hematocrit (day −14) was 44%. For the same substance, the hemoglobin (day −14) was 13.0 g/dL.
